Molecules are shown by their SMILES.

T1 sequence (Q923Y8 whole entry): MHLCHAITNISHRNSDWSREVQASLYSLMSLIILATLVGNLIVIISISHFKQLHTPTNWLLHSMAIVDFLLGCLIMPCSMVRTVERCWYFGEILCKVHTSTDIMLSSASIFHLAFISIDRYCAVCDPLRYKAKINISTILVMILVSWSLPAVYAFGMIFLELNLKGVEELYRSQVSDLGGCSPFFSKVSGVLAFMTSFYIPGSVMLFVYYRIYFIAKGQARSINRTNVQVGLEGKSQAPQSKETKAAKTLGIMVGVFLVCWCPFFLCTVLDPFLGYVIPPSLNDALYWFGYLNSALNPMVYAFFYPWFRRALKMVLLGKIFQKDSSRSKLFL

The first experiment has as its target T1, mouseTAAR1 (Mus musculus, UniProt Q923Y8).
T1 construct: expressed in transfected cells; host or cells: HEK293 (ATCC #CRL-1573), stably transfected with pIRESneo2 expression plasmid; membrane preparation
Kind of experiment: Radioligand binding on membranes of HEK293 cells stably expressing TAAR1.
Conditions: not given
How it is done:
For the construction of expression plasmids the coding sequences of human, rat and mouse TAAR 1 were amplified from genomic DNA essentially as described by Lindemann et al.. The Expand High Fidelity PCR System (Roche Diagnostics) was used with 1.5 mM Mg^2+ and purified PCR products were cloned into pCR2.1-TOPO cloning vector (Invitrogen) following the instructions of the manufacturer. PCR products were subcloned into the pIRESneo2 vector (BD Clontech, Palo Alto, Calif.), and expression vectors were sequence verified before introduction in cell lines.
For the generation of stably transfected cell lines HEK293 cells were transfected with the pIRESneo2 expression plasmids containing the TAAR coding sequences (described above) with Lipofectamine 2000 (Invitrogen) according to the instructions of the manufacturer, and 24 hrs post transfection the culture medium was supplemented with 1 mg/ml G418 (Sigma, Buchs, Switzerland). After a culture period of about 10 d clones were isolated, expanded and tested for responsiveness to trace amines (all compounds purchased from Sigma) with the cAMP Biotrak Enzyme immunoassay (EIA) System (Amersham) following the non-acetylation EIA procedure provided by the manufacturer.
Cells at confluence were rinsed with ice-cold phosphate buffered saline without Ca^2+ and Mg^2+ containing 10 mM EDTA and pelleted by centrifugation at 1000 rpm for 5 min at 4° C. The pellet was then washed twice with ice-cold phosphate buffered saline and cell pellet was frozen immediately by immersion in liquid nitrogen and stored until use at −80° C. Cell pellet was then suspended in 20 ml HEPES-NaOH (20 mM), pH 7.4 containing 10 mM EDTA, and homogenized with a Polytron (PT 3000, Kinematica) at 10,000 rpm for 10 s. The homogenate was centrifuged at 48,000×g for 30 min at 4° C. and the pellet resuspended in 20 ml HEPES-NaOH (20 mM), pH 7.4 containing 0.1 mM EDTA (buffer A), and homogenized with a Polytron at 10,000 rpm for 10 s. The homogenate was then centrifuged at 48,000×g for 30 min at 4° C. and the pellet resuspended in 20 ml buffer A, and homogenized with a Polytron at 10,000 rpm for 10 s. Protein concentration was determined by the method of Pierce (Rockford, Ill.). The homogenate was then centrifuged at 48,000×g for 10 min at 4° C., resuspended in HEPES-NaOH (20 mM), pH 7.0 including MgCl2 (10 mM) and […] homogenized with a Polytron at 10,000 rpm for 10 s.
Binding assay was performed at 4° C. in a final volume of 1 ml, and with an incubation time of 30 min. […] Competing ligands were tested in a wide range of concentrations (10 pM-30 μM). […] Each experiment was performed in duplicate. All incubations were terminated by rapid filtration through UniFilter-96 plates (Packard Instrument Company) and glass filter GF/C, pre-soaked for at least 2 h in polyethylenimine 0.3%, and using a Filtermate 96 Cell Harvester (Packard Instrument Company). The tubes and filters were then washed 3 times with 1 ml aliquots of cold buffer B. Filters were not dried and soaked in Ultima gold (45 μl/well, Packard Instrument Company) and bound radioactivity was counted by a TopCount Microplate Scintillation Counter (Packard Instrument Company).
Usually Ki stands for the equilibrium dissociation constant of an inhibitor or competing ligand from its target. The compound `CC(c1cccc(F)c1)c1cnc[nH]1` (racemic) [Example 15, rac-4-[1-(3-Fluoro-phenyl)-ethyl]-1H-imidazole] returned a Ki of 19 nM. As to `CCc1ccc(OC)c(CC)c1Cc1cnc[nH]1` [Example 70, 4-(2,6-Diethyl-3-methoxy-benzyl)-1H-imidazole], the inhibition constant Ki came out at 3.8 nM. In the case of `CC(c1cnc[nH]1)c1ccccc1F` (racemic) [Example 2, rac-4-[1-(2-Fluoro-phenyl)-ethyl]-1H-imidazole], the Ki stood at 12 nM. For the compound `CCOc1ccc(CC)c(Cc2cnc[nH]2)c1CC` [Example 74, 4-(3-Ethoxy-2,6-diethyl-benzyl)-1H-imidazole], the Ki stood at 3.7 nM. In turn, `CCC(c1ccccc1)c1cnc[nH]1` (racemic) [Example 5, rac-4-(1-Phenyl-propyl)-1H-imidazole] returned an inhibition constant Ki of 36 nM. `CCc1cc(OC)cc(CC)c1Cc1cnc[nH]1` [Example 69, 4-(2,6-Diethyl-4-methoxy-benzyl)-1H-imidazole]: the Ki is 2.6 nM. Consider `Brc1cc(Cc2c[nH]cn2)c2occc2c1` [Example 49, 4-(5-Bromo-benzofuran-7-ylmethyl)-1-imidazole], for which the Ki came out at 0.9 nM.

In turn, `CCC(c1cc(F)cc(F)c1)c1cnc[nH]1` (racemic) [Example 4, rac-4-[1-(3,5-Difluoro-phenyl)-propyl]-1H-imidazole] returned an inhibition constant (Ki) of 28 nM. On to `CCC(c1cccc(F)c1)c1cnc[nH]1` (racemic) [Example 7, rac-4-[1-(3-Fluoro-phenyl)-propyl]-1H-imidazole], for which the affinity, expressed as Ki, was 32 nM.

On to `c1ccc(-c2ccccc2Cc2cnc[nH]2)cc1` [Example 67, 4-Biphenyl-2-ylmethyl-1H-imidazole], for which the inhibitory constant (Ki) turned out to be 27.6 nM.

In the case of `CCc1cc(Oc2ccccc2)cc(CC)c1Cc1cnc[nH]1` [Example 79, 4-(2,6-Diethyl-4-phenoxy-benzyl)-1H-imidazole], the inhibitory constant (Ki) is 5.6 nM. `c1cc(Cc2cnc[nH]2)c2occc2c1` [Example 51, 4-Benzofuran-7-ylmethyl-1-imidazole] displayed a Ki of 9.3 nM. On the same count and under the same terms, next, `c1cc2c(c(Cc3cnc[nH]3)c1)OCC2` [Example 50, 4-(2,3-Dihydro-benzofuran-7-ylmethyl)-1-imidazole]: 20.2 nM; `c1ccc(-c2cccc(Cc3cnc[nH]3)c2)cc1` [Example 71, 4-Biphenyl-3-ylmethyl-1H-imidazole]: 39.1 nM; `CC(C)(c1ccccc1)c1cnc[nH]1` [Example 41, 5-(1-methyl-1-phenyl-ethyl)-1H-imidazole trifluoro-acetate]: 46.1 nM. On the same count and under the same terms, next, `CC(c1cnc[nH]1)c1cccc(F)c1F` (racemic) [Example 17, rac-4-[1-(2,3-Difluoro-phenyl)-ethyl]-1H-imidazole]: 11 nM; `CC(c1c[nH]cn1)c1cccc2ccccc12` (racemic) [Example 40, rac-4-(1-Naphthalen-1-yl-ethyl)-1H-imidazole]: 3 nM. Compound `Clc1cccc(Cl)c1Cc1cnc[nH]1` [Example 33, 4-(2,6-Dichloro-benzyl)-1H-imidazole] registered a Ki of 3 nM. `Cc1cccc(C)c1Cc1cnc[nH]1` [Example 29, 4-(2,6-Dimethyl-benzyl)-1H-imidazole] showed a Ki of 4 nM. On the same count and under the same terms, to `CC(c1ccccc1)c1cnc[nH]1` (racemic) [Example 14, rac-4-(1-Phenyl-ethyl)-1H-imidazole] belongs 4 nM. With `Cc1cc(C)c(C)c(Cc2cnc[nH]2)c1C` [Example 31, 4-(2,3,5,6-Tetramethyl-benzyl)-1H-imidazole], the inhibition constant Ki turned out to be 16 nM. Still for that read-out and setting: next, `CCC(c1cnc[nH]1)c1ccccc1F` (racemic) [Example 6, rac-4-[1-(2-Fluoro-phenyl)-propyl]-1H-imidazole]: 22 nM; `CCc1cccc(F)c1Cc1cnc[nH]1` [Example 78, 4-(2-Ethyl-6-fluoro-benzyl)-1H-imidazole]: 17.9 nM; `Cc1ccc2ccccc2c1Cc1cnc[nH]1` [Example 572, 4-(2-Methyl-naphthalen-1-ylmethyl)-1H-imidazole]: 5.6 nM. On the same count and under the same terms, next, `CCc1cccc(C)c1Cc1cnc[nH]1` [Example 57, 4-(2-Ethyl-6-methyl-benzyl)-1H-imidazole]: 10.8 nM. Consider `CCCC(c1ccccc1)c1c[nH]cn1` (racemic) [Example 1, rac-4-(1-Phenyl-butyl)-1H-imidazole], for which affinity was put at a Ki of 49 nM. As for `CCc1cccc(Cl)c1Cc1cnc[nH]1` [Example 61, 4-(2-Chloro-6-ethyl-benzyl)-1H-imidazole], the Ki amounted to 11.5 nM. For `Brc1ccccc1Cc1cnc[nH]1` [Example 27, 4-(2-Bromo-benzyl)-1H-imidazole], the Ki was 34 nM.

As for `C[C@@H](c1cnc[nH]1)c1cccc(F)c1F` [Example 46, 4-[(R)-1-(2,3-Difluoro-phenyl)-ethyl]-1H-imidazole], the Ki is 7.8 nM. Compound `CCc1ccc(Oc2ccccc2)c(CC)c1Cc1cnc[nH]1` [Example 80, 4-(2,6-Diethyl-3-phenoxy-benzyl)-1H-imidazole] showed a Ki of 13.9 nM.

In the case of `CCc1cccc(C2CC2)c1Cc1cnc[nH]1` [Example 58, 4-(2-Cyclopropyl-6-ethyl-benzyl)-1H-imidazole], the affinity, expressed as Ki, was 9.8 nM. The same measure, in the same setting: to `CCOc1cc(CC)c(Cc2cnc[nH]2)c(CC)c1` [Example 72, 4-(4-Ethoxy-2,6-diethyl-benzyl)-1H-imidazole] belongs 12.7 nM; to `CCC(c1cnc[nH]1)c1cccc(F)c1F` (racemic) [Example 20, rac-4-[1-(2,3-Difluoro-phenyl)-propyl]-1H-imidazole], 18 nM.

`CCc1cccc(CC)c1Cc1cnc[nH]1` [Example 26, 4-(2,6-Diethyl-benzyl)-1H-imidazole] came in with a Ki of 10 nM.

In turn, `Clc1ccc(Oc2cccc(Cc3cnc[nH]3)c2)cc1` [Example 60, 4-[3-(4-Chloro-phenoxy)-benzyl]-1H-imidazole] registered a Ki of 27.6 nM. Same read-out and setting: next, `c1ccc2cc(Cc3c[nH]cn3)ccc2c1` [Example 39, 4-Naphthalen-2-ylmethyl-1H-imidazole]: 29 nM. As to `Fc1cccc(Cl)c1Cc1cnc[nH]1` [Example 12, 4-(2-Chloro-6-fluoro-benzyl)-1H-imidazole], affinity was put at a Ki of 19 nM.

Still in this experiment, the particulars now being: mouseTAAR1; competition with [3H]-rac-2-(1,2,3,4-tetrahydro-1-naphthyl)-2-imidazoline, 4° C., 30 min; read-out: Ki.
With `CCc1cc(OCc2ccccc2)cc(CC)c1Cc1cnc[nH]1` [Example 73, 4-(4-Benzyloxy-2,6-diethyl-benzyl)-1H-imidazole], the Ki turned out to be 11.7 nM. Same read-out and setting: next, `Cc1cccc(Cc2c[nH]cn2)c1C` [Example 25, 4-(2,3-Dimethyl-benzyl)-1H-imidazole, reference compound]: 43 nM.

The values above are taken from patent US8158668B2, “Methods for treating CNS disorders with 4-imidazole derivatives” (Hoffmann-La Roche Inc., priority 2006, dated 2012).
